The record followed here is ChEMBL document CHEMBL3616440, “Non-basic azolotriazinone MCHR1 antagonists for the treatment of obesity: An empirical brain-exposures-driven candidate selection for in vivo efficacy studies” (Bioorg Med Chem Lett, 2015).

Some results are limits rather than exact numbers.

The test system of series [1] is Brain. Kind of series: Drug concentration in Sprague-Dawley rat brain assessed as 6-(4-chlorophenyl)-3-(4-(2-hydroxy-2-methylpropoxy)-3-methoxyphenyl)thieno[3,2-d]pyrimidin-4(3H)-one level at 10 mg/kg, po qd at 20 hrs. As to conditions: in vivo, read-out: Drug uptake. In kind it is ADME, organism-based.
The target in series [2] is Melanin-concentrating hormone receptor 1 (Rattus norvegicus) (UniProt P97639). Conditions: 10 uM.
Description: Displacement of [125I][Phe13,Tyr19]-MCH from rat MCHR1 at 10 uM by scintillation counting analysis
Series [3] deals with Melanin-concentrating hormone receptor 1 (Rattus norvegicus, UniProt P97639). Kind of series: Displacement of [125I][Phe13,Tyr19]-MCH from rat MCHR1 by scintillation counting analysis. Background: Loss of bound radioactivity is the signal in a displacement assay; it reports binding, not function.
The target of series [4] is Melanin-concentrating hormone receptor 1 (Homo sapiens, UniProt Q99705). Kind of series: Antagonist activity at human MCHR1 expressed in HEK293 cells assessed as inhibition of MCH-induced Ca2+ influx for 120 mins by FLIPR assay. Format: functional, cell-based.
Series [5] relates to Rattus norvegicus. Kind of series: Toxicity in oral-dosed Sprague-Dawley rat assessed as biliary lesion after 30 days. In kind it is organism-based. As to conditions: in vivo, 720 h.
For series [6], the system named is Plasma. Kind of series: Fraction unbound in Sprague-Dawley rat plasma assessed as 6-(4-chlorophenyl)-3-(4-(2-hydroxypropoxy)-3-methoxyphenyl)pyrrolo[1,2-f][1,2,4]triazin-4(3H)-one level. In kind it is ADME, cell-free.
For series [7], the system named is Liver. The experiment in a line: Prodrug conversion in oral-dosed Sprague-Dawley rat liver assessed as 6-(4-chlorophenyl)-3-(4-(2,3-dihydroxypropoxy)-3-methoxyphenyl)pyrrolo[1,2-f][1,2,4]triazin-4(3H)-one formation. In kind it is ADME, tissue-based. As to conditions: in vivo.
Series [8] has as its system Rattus norvegicus. The experiment in a line: Toxicity in Sprague-Dawley rat assessed as biliary lesion at 10 mg/kg, po qd for 10 days. Format: organism-based. Conditions: in vivo, 240 h.
Series [9] concerns Brain. Kind of series: Drug concentration in Sprague-Dawley rat brain assessed as 6-(4-chlorophenyl)-3-(4-(2-hydroxypropoxy)-3-methoxyphenyl)pyrrolo[1,2-f][1,2,4]triazin-4(3H)-one level at 30 mg/kg, po qd after 10 days. As to conditions: in vivo, 240 h, read-out: Drug uptake. Format: ADME, organism-based.
Series [10] is described as follows: Ratio of free drug level in brain of Sprague-Dawley rat assessed as 6-(4-chlorophenyl)-3-(4-(2-hydroxypropoxy)-3-methoxyphenyl)pyrrolo[1,2-f][1,2,4]triazin-4(3H)-one level at 30 mg/kg, po to Ki for rat MCHR1. Format: ADME, organism-based. Conditions: in vivo.
For series [11], the system named is Brain. The experiment in a line: Drug concentration in Sprague-Dawley rat brain assessed as 6-(4-chlorophenyl)-3-(4-(2-hydroxypropoxy)-3-methoxyphenyl)pyrrolo[1,2-f][1,2,4]triazin-4(3H)-one level at 3 mg/kg, po qd after 10 days. In kind it is ADME, organism-based. As to conditions: in vivo, 240 h, read-out: Drug uptake.
Series [12] concerns Rattus norvegicus. The experiment in a line: Antiobesity activity in Sprague-Dawley rat assessed as body weight reduction at 30 mg/kg, po qd after 4 days relative to control. In kind it is functional. Conditions: 96 h.
The subject of series [13] is Rattus norvegicus. Kind of series: Antiobesity activity in Sprague-Dawley rat assessed as body weight reduction at 10 mg/kg, po qd after 4 days relative to control. In kind it is functional. As to conditions: 96 h.
Series [14] has as its system Liver. The experiment in a line: Prodrug conversion in oral-dosed Sprague-Dawley rat liver assessed as 3-(4-(6-(4-chlorophenyl)-4-oxopyrrolo[1,2-f][1,2,4]triazin-3(4H)-yl)-2-methoxyphenoxy)-2-hydroxypropanoic acid formation. In kind it is ADME, tissue-based. Conditions: in vivo.
Series [15] concerns Brain. Kind of series: Drug concentration in Sprague-Dawley rat brain assessed as 6-(4-chlorophenyl)-3-(4-(2-hydroxypropoxy)-3-methoxyphenyl)pyrrolo[1,2-f][1,2,4]triazin-4(3H)-one level at 10 mg/kg, po qd after 10 days. Conditions: in vivo, 240 h, read-out: Drug uptake. Format: ADME, organism-based.
For series [16], the system named is Brain. The experiment in a line: Free drug level in Sprague-Dawley rat brain assessed as 6-(4-chlorophenyl)-3-(4-(2-hydroxypropoxy)-3-methoxyphenyl)pyrrolo[1,2-f][1,2,4]triazin-4(3H)-one level at 30 mg/kg, po qd at 20 hrs. In kind it is ADME, organism-based. Conditions: in vivo.
Series [17] deals with Rattus norvegicus. The experiment in a line: Antiobesity activity in Sprague-Dawley rat assessed as body weight reduction at 3 mg/kg, po qd after 4 days relative to control. In kind it is functional. As to conditions: 96 h.
The test system of series [18] is Brain. The experiment in a line: Free drug level in Sprague-Dawley rat brain assessed as 6-(5-chloropyridin-2-yl)-3-(4-((3,3-difluoro-1-hydroxycyclobutyl)methoxy)-3-methoxyphenyl)pyrrolo[1,2-f][1,2,4]triazin-4(3H)-one level at 30 mg/kg, po qd at 20 hrs. In kind it is ADME, organism-based. Conditions: in vivo.
Series [19] concerns Plasma. Kind of series: Fraction unbound in Sprague-Dawley rat plasma assessed as 6-(5-chloropyridin-2-yl)-3-(4-((3,3-difluoro-1-hydroxycyclobutyl)methoxy)-3-methoxyphenyl)pyrrolo[1,2-f][1,2,4]triazin-4(3H)-one level. In kind it is ADME, cell-free.
Another series relates to Nucleic Acid. Kind of series: Ratio of drug level in Sprague-Dawley rat brain to plasma assessed as 6-(5-chloropyridin-2-yl)-3-(4-((3,3-difluoro-1-hydroxycyclobutyl)methoxy)-3-methoxyphenyl)pyrrolo[1,2-f][1,2,4]triazin-4(3H)-one level at 10 mg/kg, po qd. Format: ADME, organism-based.
Series [20] has as its system Brain. The experiment in a line: Free drug level in Sprague-Dawley rat brain assessed as 6-(5-chloropyridin-2-yl)-3-(4-((3,3-difluoro-1-hydroxycyclobutyl)methoxy)-3-methoxyphenyl)pyrrolo[1,2-f][1,2,4]triazin-4(3H)-one level at 10 mg/kg, po qd at 20 hrs. Format: ADME, organism-based. Conditions: in vivo.
Series [21] concerns Plasma. The experiment in a line: Plasma concentration in Sprague-Dawley rat assessed as 6-(5-chloropyridin-2-yl)-3-(4-((3,3-difluoro-1-hydroxycyclobutyl)methoxy)-3-methoxyphenyl)pyrrolo[1,2-f][1,2,4]triazin-4(3H)-one level at 10 mg/kg, po qd at 8 hrs. In kind it is ADME, organism-based. Conditions: in vivo.
The nature of series [22]: Ratio of free drug level in brain of Sprague-Dawley rat assessed as 6-(5-chloropyridin-2-yl)-3-(4-((3,3-difluoro-1-hydroxycyclobutyl)methoxy)-3-methoxyphenyl)pyrrolo[1,2-f][1,2,4]triazin-4(3H)-one level at 30 mg/kg, po to Ki for rat MCHR1. Conditions: in vivo. In kind it is ADME, organism-based.
Series [23] has as its system Brain. Kind of series: Free drug level in Sprague-Dawley rat brain assessed as 6-(5-chloropyridin-2-yl)-3-(4-((3,3-difluoro-1-hydroxycyclobutyl)methoxy)-3-methoxyphenyl)pyrrolo[1,2-f][1,2,4]triazin-4(3H)-one level at 3 mg/kg, po qd at 20 hrs. In kind it is ADME, organism-based. Conditions: in vivo.
In series [24] the test system is Brain. The experiment in a line: Drug concentration in Sprague-Dawley rat brain assessed as 6-(5-chloropyridin-2-yl)-3-(4-((3,3-difluoro-1-hydroxycyclobutyl)methoxy)-3-methoxyphenyl)pyrrolo[1,2-f][1,2,4]triazin-4(3H)-one level at 30 mg/kg, po qd at 20 hrs. In kind it is ADME, organism-based. Conditions: in vivo, read-out: Drug uptake.
Series [25] deals with Brain. The experiment in a line: Drug concentration in Sprague-Dawley rat brain assessed as 6-(5-chloropyridin-2-yl)-3-(4-((3,3-difluoro-1-hydroxycyclobutyl)methoxy)-3-methoxyphenyl)pyrrolo[1,2-f][1,2,4]triazin-4(3H)-one level at 10 mg/kg, po qd at 20 hrs. In kind it is ADME, organism-based. As to conditions: in vivo, read-out: Drug uptake.
The nature of series [26]: Ratio of free drug level in brain of Sprague-Dawley rat assessed as 6-(5-chloropyridin-2-yl)-3-(4-((3,3-difluoro-1-hydroxycyclobutyl)methoxy)-3-methoxyphenyl)pyrrolo[1,2-f][1,2,4]triazin-4(3H)-one level at 10 mg/kg, po to Ki for rat MCHR1. Format: ADME, organism-based. As to conditions: in vivo.
In series [27] the test system is Brain. Kind of series: Drug concentration in Sprague-Dawley rat brain assessed as 6-(5-chloropyridin-2-yl)-3-(4-((3,3-difluoro-1-hydroxycyclobutyl)methoxy)-3-methoxyphenyl)pyrrolo[1,2-f][1,2,4]triazin-4(3H)-one level at 3 mg/kg, po qd at 20 hrs. In kind it is ADME, organism-based. Conditions: in vivo, read-out: Drug uptake.
Series [28] is described as follows: Ratio of free drug level in brain of Sprague-Dawley rat assessed as 6-(5-chloropyridin-2-yl)-3-(4-((3,3-difluoro-1-hydroxycyclobutyl)methoxy)-3-methoxyphenyl)pyrrolo[1,2-f][1,2,4]triazin-4(3H)-one level at 3 mg/kg, po to Ki for rat MCHR1. In kind it is ADME, organism-based. Conditions: in vivo.
In series [29] the test system is Brain. The experiment in a line: Drug concentration in Sprague-Dawley rat brain assessed as 6-(5-chloropyridin-2-yl)-3-(4-((3,3-difluoro-1-hydroxycyclobutyl)methoxy)-3-methoxyphenyl)pyrrolo[1,2-f][1,2,4]triazin-4(3H)-one level at 10 mg/kg, po qd at 8 hrs. In kind it is ADME, organism-based. As to conditions: in vivo, read-out: Drug uptake.

Melanin-concentrating hormone receptor 1 (Homo sapiens, UniProt Q99705), sequence (Q99705 whole entry): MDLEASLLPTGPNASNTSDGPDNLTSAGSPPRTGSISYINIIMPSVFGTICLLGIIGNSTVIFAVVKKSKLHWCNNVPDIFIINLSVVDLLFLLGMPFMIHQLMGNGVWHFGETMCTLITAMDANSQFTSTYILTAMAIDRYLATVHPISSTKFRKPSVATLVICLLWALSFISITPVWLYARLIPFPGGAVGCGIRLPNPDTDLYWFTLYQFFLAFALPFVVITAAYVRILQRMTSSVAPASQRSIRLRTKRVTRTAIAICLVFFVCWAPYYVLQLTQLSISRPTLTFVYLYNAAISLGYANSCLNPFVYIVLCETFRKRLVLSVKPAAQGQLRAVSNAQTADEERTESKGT
Melanin-concentrating hormone receptor 1 (Rattus norvegicus, UniProt P97639), sequence (P97639 whole entry): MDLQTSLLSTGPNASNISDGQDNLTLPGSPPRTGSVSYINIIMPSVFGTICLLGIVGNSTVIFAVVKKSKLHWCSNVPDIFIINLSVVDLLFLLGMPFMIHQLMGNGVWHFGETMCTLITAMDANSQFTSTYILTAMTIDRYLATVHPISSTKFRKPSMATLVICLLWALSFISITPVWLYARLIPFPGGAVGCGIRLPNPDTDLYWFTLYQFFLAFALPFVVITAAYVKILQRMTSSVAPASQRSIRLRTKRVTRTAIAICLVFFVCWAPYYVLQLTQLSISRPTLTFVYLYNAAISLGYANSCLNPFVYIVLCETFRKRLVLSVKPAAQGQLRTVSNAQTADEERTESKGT
Melanin-concentrating hormone receptor 1 (Rattus norvegicus), sequence (P97639 whole entry): as above

A word on the inhibition: it is the drop in the measured response relative to a control, in per cent. Read a low inhibition as a weak effect. A word on the Ki: it is the dissociation constant of the complex between target and ligand, obtained from inhibition or displacement. As usually defined, the IC50 is the point on the concentration scale where inhibition reaches its midpoint. Consider `COc1cc(-n2cnc3cc(-c4ccc(Cl)cc4)sc3c2=O)ccc1OCC(C)(C)O`, for which the concentration in the series on Brain [1] was found to be 1.61 µM. This compound gave an inhibition in series [2] of over 90%. Also, in series [3], the inhibition constant (Ki) is 7.2 nM. For the same compound, in series [4], the 50% inhibitory concentration (IC50) turned out to be 16 nM. Moreover, the Activity entry with Rattus norvegicus [5] is on record as “Toxic”.
By inhibition in vivo is commonly meant the relative decrease from the control value, in per cent. As to `COc1cc(-n2cnn3cc(-c4ccc(Cl)cc4)cc3c2=O)ccc1OCC(C)OC(=O)[C@@H](N)C(C)C` (stereo partly drawn), the Fu in the series with Plasma [6] is 0.4%. In addition, the values for the Drug metabolism in the series with Liver [7] and in the series on Liver [14] were 6 µM and 46 µM, respectively. For the same compound, the Activity entry in the series with Rattus norvegicus [8] is “Toxic”. Further, the concentration with Brain [9] worked out at 20.8 µM; in the series on Brain [11], 4.12 µM; with Brain [15], 12.9 µM. In addition, the Ratio in series [10] is 6. Moreover, the inhibition in vivo at 30 mg/kg in the series on Rattus norvegicus [12] came to 7.6%. For the same compound, the inhibition in vivo at 10 mg/kg with Rattus norvegicus [13] was 3.9%. Besides, in the series on Brain [16], the “Drug uptake(free)” value came to 8.4 nM. In addition, the inhibition in vivo at 3 mg/kg with Rattus norvegicus [17] stood at 2.6%.
Turning to `COc1cc(-n2cnn3cc(-c4ccc(Cl)cn4)cc3c2=O)ccc1OCC1(OC(=O)CN)CC(F)(F)C1`, the “Drug uptake(free)” value with Brain [18] is 624 nM; with Brain [20], 616 nM; in the series on Brain [23], 63.9 nM. Further, the Fu result in the series on Plasma [19] is listed as “<= 0.1%”. Moreover, the BPR in the series on Nucleic Acid is listed as 0.6. Moreover, the concentration with Plasma [21] was determined as 5.59 µM; in the series with Brain [24] it was 23.9 µM; with Brain [25] it was 16 µM; with Brain [27], 3.87 µM; in the series with Brain [29] it was 3.59 µM. In addition, the values for the Ratio result in series [22], in series [26] and in series [28] were “<= 3.7”, “<= 2.5” and “<= 0.6”, respectively. Besides, the inhibition in vivo at 30 mg/kg in the series on Rattus norvegicus [12] amounted to 13%. Further, in the series on Rattus norvegicus [13], the inhibition in vivo at 10 mg/kg stood at 4.4%. In addition, in the series on Rattus norvegicus [17], the inhibition in vivo at 3 mg/kg was determined as 1.6%.
